The test addresses T1, CCR2 (Homo sapiens, UniProt P41597).
T1 construct: expressed in transfected cells
The test can be described thus: CCR2 calcium activity assay on FLIPR Tetra in HEK-Gqi5 cells stably expressing CCR2. In kind it is cell-based.
T1 sequence (P41597 whole entry, species assumed): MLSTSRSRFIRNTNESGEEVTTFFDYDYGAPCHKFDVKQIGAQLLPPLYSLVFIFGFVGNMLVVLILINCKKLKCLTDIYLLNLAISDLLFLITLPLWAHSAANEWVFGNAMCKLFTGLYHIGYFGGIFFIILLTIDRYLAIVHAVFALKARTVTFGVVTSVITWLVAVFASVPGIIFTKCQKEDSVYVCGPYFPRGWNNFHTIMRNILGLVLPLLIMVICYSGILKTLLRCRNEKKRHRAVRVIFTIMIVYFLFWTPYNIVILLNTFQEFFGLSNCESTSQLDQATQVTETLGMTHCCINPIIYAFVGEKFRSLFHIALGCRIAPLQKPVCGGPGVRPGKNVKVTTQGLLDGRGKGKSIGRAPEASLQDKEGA
Consider `Cn1sc(=O)c2cc(C(=O)Nc3cc(Cl)ccc3NS(=O)(=O)c3cccs3)ccc21` [N-{5-chloro-2-[(2-thienylsulfonyl)amino]phenyl}-1-methyl-3-oxo-1,3-dihydro-2,1-benzisothiazole-5-carboxamide], for which the “CCR2 % ANTAG” value amounted to 99%.

By IC50 is commonly meant the midpoint of a concentration-inhibition curve. On to `Cn1sc(=O)c2cc(S(=O)(=O)Nc3cc(Cl)ccc3NS(=O)(=O)c3cccs3)ccc21` [N-{5-chloro-2-[(2-thienylsulfonyl)amino]phenyl}-1-methyl-3-oxo-1,3-dihydro-2,1-benzisothiazole-5-sulfonamide], for which the “CCR2 % ANTAG” value was 98% and the IC50 turned out to be 234 nM.

In the case of `Cn1sc(=O)c2cc(S(=O)(=O)Nc3cc(Cl)cnc3NS(=O)(=O)c3cccs3)ccc21` [N-{5-chloro-2-[(2-thienylsulfonyl)amino]pyridin-3-yl}-1-methyl-3-oxo-1,3-dihydro-2,1-benzisothiazole-5-sulfonamide], the “CCR2 % ANTAG” value is listed as 48% and the IC50 amounted to 1010 nM.

In the case of `Cn1sc(=O)c2cc(S(=O)(=O)Nc3cc(Cl)cnc3C(=O)N3CCC(=O)CC3)ccc21` [N-{5-chloro-2-[(4-oxopiperidin-1-yl)carbonyl]pyridin-3-yl}-1-methyl-3-oxo-1,3-dihydro-2,1-benzisothiazole-5-sulfonamide], the “CCR2 % ANTAG” value was 58%.

With `Cc1cc(NS(=O)(=O)c2cccs2)c(NS(=O)(=O)c2ccc3c(c2)c(=O)sn3C)cc1Cl` [N-{5-chloro-4-methyl-2-[(2-thienylsulfonyl)amino]phenyl}-1-methyl-3-oxo-1,3-dihydro-2,1-benzisothiazole-5-sulfonamide], the “CCR2 % ANTAG” value was determined as 91% and the 50% inhibitory concentration (IC50) was determined as 531 nM.

For `Cn1sc(=O)c2cc(S(=O)(=O)Nc3cc(C#N)ccc3NS(=O)(=O)c3cccs3)ccc21` [N-{5-cyano-2-[(2-thienylsulfonyl)amino]phenyl}-1-methyl-3-oxo-1,3-dihydro-2,1-benzisothiazole-5-sulfonamide], the “CCR2 % ANTAG” value stood at 59% and the IC50 is 2720 nM.

As for `CCc1ccc(NS(=O)(=O)c2cccs2)c(NS(=O)(=O)c2ccc3c(c2)c(=O)sn3C)c1` [N-{5-ethyl-2-[(2-thienylsulfonyl)amino]phenyl}-1-methyl-3-oxo-1,3-dihydro-2,1-benzisothiazole-5-sulfonamide], the “CCR2 % ANTAG” value was 94% and the 50% inhibitory concentration (IC50) is 1940 nM.

On to `CC(C)c1ccc(NS(=O)(=O)c2cccs2)c(NS(=O)(=O)c2ccc3c(c2)c(=O)sn3C)c1` [N-{5-isopropyl-2-[(2-thienylsulfonyl)amino]phenyl}-1-methyl-3-oxo-1,3-dihydro-2,1-benzisothiazole-5-sulfonamide], for which the “CCR2 % ANTAG” value was 85% and the IC50 turned out to be 425 nM.

For `COc1ccc(NS(=O)(=O)c2cccs2)c(NS(=O)(=O)c2ccc3c(c2)c(=O)sn3C)c1` [N-{5-methoxy-2-[(2-thienylsulfonyl)amino]phenyl}-1-methyl-3-oxo-1,3-dihydro-2,1-benzisothiazole-5-sulfonamide], the “CCR2 % ANTAG” value came out at 104% and the 50% inhibitory concentration (IC50) came to 1410 nM.

With `COC(=O)c1ccc(NS(=O)(=O)c2cccs2)c(NS(=O)(=O)c2ccc3c(c2)c(=O)sn3C)c1` [methyl 3-{[(1-methyl-3-oxo-1,3-dihydro-2,1-benzisothiazol-5-yl)sulfonyl]amino}-4-[(2-thienylsulfonyl)amino]benzoate], the “CCR2 % ANTAG” value was 76% and the half-maximal inhibitory concentration (IC50) is 2410 nM.

For `COC(=O)c1ccc(NS(=O)(=O)c2ccc3c(c2)c(=O)sn3C)c(NS(=O)(=O)c2cccs2)c1` [methyl 4-{[(1-methyl-3-oxo-1,3-dihydro-2,1-benzisothiazol-5-yl)sulfonyl]amino}-3-[(2-thienylsulfonyl)amino]benzoate], the “CCR2 % ANTAG” value turned out to be 0% and the IC50 was above 8300 nM.

In the case of “N,N-dimethyl-N-(4-{[(1-methyl-3-oxo-1,3-dihydro-2,1-benzisothiazol-5-yl)carbonyl]amino}benzyl)tetrahydro-2H-pyran-4-aminium”, the “CCR2 % ANTAG” value is given as 85% and the IC50 worked out at 1190 nM.

Values taken from patent publication US8524745B2 (Allergan, Inc., priority 2011, dated 2013).
